Laboratory results reported in US11596644B2, “Method for treating post-prandial hypoglycemia” (AVOLYNT, priority 2018, dated 2023).

How the values were obtained:
rat SGLT2 = target: T1, rat SGLT2 (Rattus norvegicus, UniProt P53792); assay: Inhibition of radiolabeled α-MG uptake into COS-7 cells transfected with rat SGLT2 (Dixon plot); format: cell-based; conditions: α-MG 0.3 and 1 mM
T1 construct: expressed in transfected cells; host or cells: COS-7
T1 sequence (P53792 1-670): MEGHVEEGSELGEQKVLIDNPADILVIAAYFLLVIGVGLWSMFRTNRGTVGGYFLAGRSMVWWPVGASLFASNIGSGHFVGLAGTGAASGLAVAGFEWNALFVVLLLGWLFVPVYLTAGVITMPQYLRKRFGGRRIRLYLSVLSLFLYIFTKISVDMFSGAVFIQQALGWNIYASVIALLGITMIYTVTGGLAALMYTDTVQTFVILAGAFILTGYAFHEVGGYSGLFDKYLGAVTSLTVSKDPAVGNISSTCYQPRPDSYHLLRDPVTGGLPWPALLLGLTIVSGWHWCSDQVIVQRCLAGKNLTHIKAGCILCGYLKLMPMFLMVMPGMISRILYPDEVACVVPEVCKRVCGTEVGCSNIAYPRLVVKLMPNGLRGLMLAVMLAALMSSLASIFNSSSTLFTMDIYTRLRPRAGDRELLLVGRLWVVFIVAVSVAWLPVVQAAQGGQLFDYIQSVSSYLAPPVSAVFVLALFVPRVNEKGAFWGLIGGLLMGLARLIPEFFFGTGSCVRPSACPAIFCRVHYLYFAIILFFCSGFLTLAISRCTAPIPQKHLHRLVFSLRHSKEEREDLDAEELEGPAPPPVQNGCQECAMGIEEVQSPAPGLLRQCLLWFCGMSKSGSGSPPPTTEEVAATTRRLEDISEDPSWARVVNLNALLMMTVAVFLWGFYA
Protocol: Selective inhibition study. Inhibition constants (Ki) of mizagliflozin for rat and human SGLT1 and SGLT2 were determined measuring concentration-dependent effects of test compound on uptake of radiolabeled methyl-α-D-glucopyranoside (α-MG) into COS-7 cells transiently transfected with cloned SGLT1 or SGLT2. Mizagliflozin was assessed at concentrations from 1 to 30 μM and 3 to 100 μM for human and rat SGLT2, respectively. It was assessed at concentrations from 30 nM to 1 μM and 10 to 30 nM for human and rat SGLT1, respectively. α-MG test concentrations were 0.3 and 1 mM. Data were analyzed and Ki determined using Dixon plots of initial transport rates. […] Inhibition constants were also determined for human SGLT1 and SGLT2.

[1] = tested on: STZ-induced diabetic rats; assay: Oral glucose tolerance test in STZ-induced diabetic rats (Example 4); format: in vivo, rat
Protocol: Study in diabetic rats using oral glucose tolerance test. Efficacy of mizagliflozin was tested in a rat model for diabetes using an oral glucose tolerance test (OGTT). Diabetic model rats were prepared by intravenous administration of STZ to induce diabetes. Seven days after STZ administration, rats were fasted for 16 hours and then given an oral loading dose of 2.0 g/kg of glucose. Mizagliflozin, or water as the vehicle control, was then administered as a single oral dose to groups of male rats (n=8/group) at doses of 0.03, 0.1, 0.3, and 1 mg/kg. Another control group was given vehicle and consisted of normal male Sprague Dawley rats that were not administrated STZ. Voglibose was also administered as a single oral dose to male rats (n=8/group) at dose levels of 0.1, 0.3 and 1 mg/kg. Blood samples were collected just prior to loading with mixed carbohydrate and at 0.5, 1, 2, 3, 4, and 6 hours after loading. Plasma glucose concentrations were determined and ΔAUC0-1 h for plasma glucose was calculated.

[2] = tested on: normal Sprague Dawley rats; assay: Mixed carbohydrate tolerance test in normal rats; format: in vivo, rat
Protocol: Study on normal rats. The efficacy of mizagliflozin (decreasing plasma glucose levels) in normal Sprague Dawley rats was determined in a mixed carbohydrate tolerance test. Normal rats were fasted for 16 hours and then given an oral loading dose of 2.0 g/kg of mixed carbohydrate (soluble starch:sucrose:lactose monohydrate=6:3:1). Mizagliflozin (KGA-3235 sebacate), or water as the vehicle control, was then administered as a single oral dose to groups of male rats (n=8/group) at doses of 0.03, 0.1, 0.3, and 1 mg/kg. Voglibose, a glucosidase inhibitor similar to acarbose, was used as a positive control and was administered as a single oral dose to male rats (n=8/group) at dose levels of 0.1, 0.3 and 1 mg/kg. Blood samples were collected just prior to loading with mixed carbohydrate and at 0.5, 1, 2, 3, 4, and 6 hours after loading.

[3] = tested on: STZ-induced diabetic rats; assay: Mixed carbohydrate tolerance test in STZ-induced diabetic rats (Example 3); format: in vivo, rat; conditions: mixed carbohydrate 2.0 g/kg
Protocol: Study in diabetic rats. Mizagliflozin was tested in a rat model for diabetes and efficacy, as measured by a relative decrease in plasma glucose, was determined using a mixed carbohydrate tolerance test. Diabetic model rats were prepared by intravenous administration of streptozotocin (STZ) to induce diabetes. Seven days after STZ administration, rats were fasted for 16 hours and then given an oral loading dose of 2.0 g/kg of mixed carbohydrate (soluble starch:sucrose:lactose monohydrate=6:3:1). Mizagliflozin, or water as the vehicle control, was then administered as a single oral dose to groups of male rats (n=8/group) at doses of 0.01, 0.03, 0.1, and 0.3 mg/kg. Another control group was given vehicle and consisted of normal male Sprague Dawley rats that were not administered STZ. Voglibose was also administered as a single oral dose to male rats (n=8/group) at dose levels of 0.03, 0.1 and 0.3 mg/kg. Blood samples were collected just prior to loading with mixed carbohydrate and at 0.5, 1, 2, 3, 4, and 6 hours after loading. Plasma glucose concentrations were determined and ΔAUC0-1 h for plasma glucose was calculated.

Row | Compound | Ki (rat SGLT2) | ΔAUC0-1 h relative to control group ([1]; OGTT, maximum dose 1 mg/kg) | ΔAUC0-1 h of plasma glucose versus vehicle control ([1]; glucose 2.0 g/kg) | ED50 ([2]; Rattus norvegicus, read-out: ED50 calculated from mean ΔAUC0-1 h (% of control), mixed carbohydrate 2.0 g/kg, single oral dose) | ΔAUC0-1 h of plasma glucose versus vehicle control ([2]; mixed carbohydrate 2.0 g/kg) | ΔAUC0-1 h of plasma glucose versus vehicle control [3]
1 | O=C(CCc1ccc(O)cc1)c1c(O)cc(O)cc1O[C@@H]1O[C@H](CO)[C@@H](O)[C@H](O)[C@H]1O [phlorizin, reference compound] | 41.1 nM | – | – | – | – | –
2 | OCC(CO)N[C@H]1C[C@](O)(CO)[C@@H](O)[C@H](O)[C@H]1O [voglibose, reference compound] | – | not half or less than half that in the control group | significant decrease | 0.32 mg/kg | significant decrease | significant decrease
